Laboratory results from patent publication EP1475385A1 (Newron Pharmaceuticals S.p.A., priority 2003, dated 2004).
Read-outs that look alike come from different tables or passages of the source.

What was measured:
KYNA [1] = assay: Measurement of hippocampal KYNA levels by microdialysis; assay type: in vivo, rats
Experimental: Measurement of hippocampal kyna levels: Microdialysis was performed in adult, male rats (Charles-River; 200-250 g). Under anesthesia, a microdialysis probe (CMA/10, membrane length: 2 mm, Carnegie […], Stockholm, Sweden) was implanted vertically into the brain, extending throughout the dorsal hippocampus. On the next day, the probe was connected to a microperfusion pump, and the hippocampus of the unanesthetized rat was perfused with Ringer solution at a speed of 1 microliter/min. Dialysate was collected every 30 min. The concentration of KYNA in the dialysis samples was determined by HPLC with fluorimetric detection, using the analytical procedure described by Wu et al. (Eur. J. Neurosci., 4: 1264-1270,1992).

GLU = assay: Striatal GLU release by transcerebral microdialysis (caudate); assay type: in vivo, Wistar rats; conditions: caudate dialysate
Experimental: (§1) Striatal GLU release: Transcerebral microdialysis tubing having an exposed length of 1 mm for each caudate, were implanted through small burr holes drilled in the skull of anesthetized male Wistar rats. Approximately twelve hours after surgery, in freely moving animals, the membranes were perfused at a flow rate of 3.5 µl/min. After a washout period of approximately one hour, fractions were collected to determine the basal output of KYNA and of GLU. KYNA was measured using HPLC with post column derivatization and fluorometric detection as previously reported. HPLC separation and fluorometric detection was also used for quantitative measurements of GLU (Carpenedo et al 2001, Europ. J. Neuroscience 13, 2141-2147).

brain KMO = molecular target: T1, brain KMO (Rattus norvegicus, UniProt O88867); assay: In vitro KMO activity determination (rat brain mitochondria preparation, HPLC of 3-OH-KYN formation); assay type: biochemical
T1 construct: from tissue; host or cells: rat brain cortex, mitochondrial fraction (male Wistar rats)
T1 sequence (O88867 whole entry): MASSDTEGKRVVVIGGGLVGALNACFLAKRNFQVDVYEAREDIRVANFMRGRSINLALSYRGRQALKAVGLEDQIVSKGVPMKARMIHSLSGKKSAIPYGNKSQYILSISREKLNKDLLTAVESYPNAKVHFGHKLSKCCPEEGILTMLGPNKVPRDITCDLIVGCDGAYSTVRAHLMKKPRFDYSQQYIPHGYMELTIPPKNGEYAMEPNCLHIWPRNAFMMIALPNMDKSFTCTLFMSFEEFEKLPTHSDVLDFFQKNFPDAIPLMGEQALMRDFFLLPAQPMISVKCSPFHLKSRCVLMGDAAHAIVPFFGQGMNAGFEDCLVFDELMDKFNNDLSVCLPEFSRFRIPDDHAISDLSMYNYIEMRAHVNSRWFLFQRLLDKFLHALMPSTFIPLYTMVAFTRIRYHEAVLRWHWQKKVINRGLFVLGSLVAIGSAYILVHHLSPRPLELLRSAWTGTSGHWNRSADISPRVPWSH
Experimental: Rat brain mitochondria preparation: Male Wistar rats were sacrificed and brain quickly removed, cortex was dissected out on ice and homogenized in 2.5 volumes of ice-cold 0.32 M saccarose using a glass-Teflon homogenizer. After centrifugation at 600 g for 10 min at 4°C, the supernatant was stored and the pellet was washed and centrifuged again. The two supernatants were pooled and centrifuged at 10,000 g for 10 min at 4°C. The pellet was washed in fresh saccarose and centrifuged twice at 15,000 g for 10 min at 4°C. The pellet (corresponding to the mitochondrial fraction) was resuspended in 2.5 volumes of ice-cold 20 mM potassium phosphate buffer containing 0.14 M KCl, pH 7.0. Protein content was determined by BCA protein assay kit from Pierce.
In vitro KMO activity determination: The enzyme activity was evaluated by measuring by HPLC the formation of 3-OH-KYN in homogenates incubated in the presence of a fixed concentration of KYN (close to the enzyme Km that in our experimental conditions is 30 µM) […]
IC50 values were determined from three independent inhibition curves using at least seven different inhibitor concentrations using non linear regression analysis (best fitting aided-computer program.

KYNA [2] = assay: KYNA output in caudate dialysate by transcerebral microdialysis; assay type: in vivo, Wistar rats
Experimental: as §1

KMO = KMO (Homo sapiens, UniProt O15229); conditions: reported in WO 98/40344; read-out: IC50 for KMO inhibition; cited from earlier work
KMO, sequence (O15229 whole entry, species assumed): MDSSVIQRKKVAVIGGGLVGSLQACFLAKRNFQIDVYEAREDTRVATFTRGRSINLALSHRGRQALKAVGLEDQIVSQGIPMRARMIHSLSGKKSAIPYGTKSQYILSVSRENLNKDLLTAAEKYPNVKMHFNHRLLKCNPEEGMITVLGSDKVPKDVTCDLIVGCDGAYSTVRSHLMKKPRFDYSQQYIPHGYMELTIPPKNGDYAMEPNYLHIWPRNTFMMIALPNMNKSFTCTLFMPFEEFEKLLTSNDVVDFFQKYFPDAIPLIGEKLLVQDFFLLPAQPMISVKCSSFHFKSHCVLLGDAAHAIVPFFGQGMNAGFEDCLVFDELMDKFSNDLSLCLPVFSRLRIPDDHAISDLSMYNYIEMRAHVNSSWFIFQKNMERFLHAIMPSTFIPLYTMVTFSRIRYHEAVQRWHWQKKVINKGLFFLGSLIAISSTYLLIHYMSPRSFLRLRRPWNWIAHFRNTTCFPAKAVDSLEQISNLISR

Compound: O=C(OC[C@H]1O[C@H](O)[C@H](O)[C@@H](O)[C@H]1O)[C@H]1C[C@@H]1C(=O)c1ccc(Cl)c(Cl)c1
- KYNA extracellular concentration, maximum increase (KYNA [1]; hippocampus dialysate, 50 mg/kg ip, 6 hours after drug administration, mean ± SEM, P< 0.01, basal 2.6 ± 0.2 nM): 26.7 ± 2.2 nM
- brain KYNA content (KYNA [1]; hippocampus, 25 and 50 mg/kg i.p., systemic administration): dose-dependently increased
- dialysate KYNA concentration (KYNA [1]; hippocampus, up to 24 h after both 25 and 50 mg/kg i.p., P<0.05): significant increase
- decrease in GLU concentrations (GLU; 24 h later): -65%
- decrease in GLU concentrations (GLU; highest dose (30-100 µmol/kg i.p.), in 2 hrs (maximum), basal 4.3 ± 0.9 µM): -78 ± 8%
- IC50 (brain KMO; compound preincubated with mitochondria preparation for 30 min before adding the substrate (KYN), compared with IC50 without pre-incubation): not significantly different
- IC50 (brain KMO; in vitro brain KMO, without pre-incubation, KYN 50 µM, 60 min at 37°C, read-out: IC50): 66 nM
- brain KYNA content, maximum increase (KYNA [2]; 180 min after drug administration, basal 13.2 ± 0.1 nM): +750%
- increase in dialysate KYNA concentration (KYNA [2]; up to 24 h after 100 µmol/kg i.p.): +280%

Compound: O=C(O)C1CC1C(=O)c1ccc(Cl)c(Cl)c1 (stereo not shown) [2-(3,4-dichlorobenzoyl)-cyclopropane-1-carboxylic acid]
- IC50 (KMO): 180 nM
